Reference: paper PMC6080930 (The Journal of Cell Biology, 2018)

Target: adenylyl cyclase A (ACA); ACA-YFP (Dictyostelium discoideum, UniProt Q03100)
Settings: labelled compound; 2 mM MnSO4, 2 mM MgSO4, Tris pH 8.0, 22°C, 10 min; lysed EVs

Chain of adenylyl cyclase A (ACA); ACA-YFP (Q03100 whole entry): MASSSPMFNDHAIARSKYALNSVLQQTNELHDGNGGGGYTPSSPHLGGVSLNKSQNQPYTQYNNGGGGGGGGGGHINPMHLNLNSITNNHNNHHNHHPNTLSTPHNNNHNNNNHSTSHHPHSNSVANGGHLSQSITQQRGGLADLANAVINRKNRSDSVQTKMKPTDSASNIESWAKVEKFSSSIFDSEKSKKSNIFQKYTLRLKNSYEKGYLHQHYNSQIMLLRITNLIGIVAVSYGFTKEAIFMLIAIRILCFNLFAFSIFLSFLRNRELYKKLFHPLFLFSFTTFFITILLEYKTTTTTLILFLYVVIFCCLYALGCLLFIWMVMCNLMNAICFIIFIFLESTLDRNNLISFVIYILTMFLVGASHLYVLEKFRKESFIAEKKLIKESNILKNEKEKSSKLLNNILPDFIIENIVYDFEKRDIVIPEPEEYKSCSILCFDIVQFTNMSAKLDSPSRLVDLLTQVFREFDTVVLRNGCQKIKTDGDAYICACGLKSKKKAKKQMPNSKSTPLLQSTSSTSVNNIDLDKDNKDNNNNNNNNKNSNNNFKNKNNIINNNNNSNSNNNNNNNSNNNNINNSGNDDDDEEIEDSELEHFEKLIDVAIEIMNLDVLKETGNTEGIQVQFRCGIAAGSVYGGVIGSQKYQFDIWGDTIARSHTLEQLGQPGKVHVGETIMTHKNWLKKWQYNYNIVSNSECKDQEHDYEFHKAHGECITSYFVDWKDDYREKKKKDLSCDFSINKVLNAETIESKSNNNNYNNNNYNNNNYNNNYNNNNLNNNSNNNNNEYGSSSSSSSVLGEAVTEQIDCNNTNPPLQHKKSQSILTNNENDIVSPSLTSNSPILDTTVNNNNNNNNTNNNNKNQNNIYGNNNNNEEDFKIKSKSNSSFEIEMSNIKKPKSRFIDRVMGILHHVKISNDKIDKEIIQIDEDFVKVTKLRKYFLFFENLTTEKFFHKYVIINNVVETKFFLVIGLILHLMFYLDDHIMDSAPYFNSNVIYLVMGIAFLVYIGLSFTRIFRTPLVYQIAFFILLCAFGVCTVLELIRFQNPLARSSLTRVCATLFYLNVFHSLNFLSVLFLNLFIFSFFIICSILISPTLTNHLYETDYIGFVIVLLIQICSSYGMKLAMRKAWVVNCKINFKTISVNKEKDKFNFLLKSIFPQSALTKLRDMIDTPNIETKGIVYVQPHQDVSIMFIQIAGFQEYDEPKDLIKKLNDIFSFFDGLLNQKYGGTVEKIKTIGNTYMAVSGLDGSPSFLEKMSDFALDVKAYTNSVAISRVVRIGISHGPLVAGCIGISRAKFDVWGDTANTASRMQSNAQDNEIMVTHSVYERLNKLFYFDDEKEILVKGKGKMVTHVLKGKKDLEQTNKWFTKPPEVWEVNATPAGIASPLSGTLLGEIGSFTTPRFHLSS

## Nc1ncnc2c1ncn2[C@@H]1O[C@H](COP(=O)(O)OP(=O)(O)OP(=O)(O)O)[C@@H](O)[C@H]1O [ATP]
  conversion of [32P]ATP to [32P]cAMP, Dowex/alumina columns: MnSO4 induced an increase in adenylyl cyclase activity in ACA-YFP/aca^− EVs
